Reference: patent US7652014B2, “Substituted 6-cyclohexylalkyl substituted 2-quinolinones and 2-quinoxalinones as poly(ADP-ribose) polymerase inhibitors” (Janssen Pharmaceutica, priority 2003, dated 2010)

Legend:
PARP-1 enzyme [1] = target: T1, PARP-1 enzyme (Homo sapiens, UniProt P09874); experiment: In vitro Scintillation Proximity Assay (SPA) for PARP-1 inhibitory activity; type: biochemical; details: nicked DNA activated PARP-1, [3H]-NAD+, biotinylated histones; read-out: In vitro SPA pIC50 (converted)
T1 construct: made in house
Experimental: Pharmacological Example In Vitro Scintillation Proximity Assay (SPA) for PARP-1 Inhibitory Activity
Compounds of the present invention were tested in an in vitro assay based on SPA technology (proprietary to Amersham Pharmacia Biotech).
In principle, the assay relies upon the well established SPA technology for the detection of poly(ADP-ribosyl)ation of biotinylated target proteins, i.e histones. This ribosylation is induced using nicked DNA activated PARP-1 enzyme and [^3H]-nicotinamide adenine dinucleotide ([^3H]-NAD^+) as ADP-ribosyl donor.
As inducer of PARP-1 enzyme activity, nicked DNA was prepared. For this, 25 mg of DNA (supplier: Sigma) was dissolved in 25 ml DNAse buffer (10 mM Tris-HCl, pH 7.4; 0.5 mg/ml Bovine Serum Albumine (BSA); 5 mM MgCl2.6H2O and 1 mM KCl) to which 50 μl DNAse solution (1 mg/ml in 0.15 M NaCl) was added. After an incubation of 90 min. at 37° C., the reaction was terminated by adding 1.45 g NaCl, followed by a further incubation at 58° C. for 15 min. The reaction mixture was cooled on ice and dialysed at 4° C. for respectively 1.5 and 2 hours against 1.5 l of 0.2 M KCl, and twice against 1.5 l of 0.01 M KCl for 1.5 and 2 h respectively. The mixture was aliquoted and stored at −20° C. Histones (1 mg/ml, type II-A, supplier: Sigma) were biotinylated using the biotinylation kit of Amersham and stored aliquoted at −20° C. A stock solution of 100 mg/ml SPA poly(vinyl toluene) (PVT) beads (supplier: Amersham) was made in PBS. A stock solution of [^3H]-NAD^+ was made by adding 120 μl of [^3H]-NAD^+ (0.1 mCi/ml, supplier: NEN) to 6 ml incubation buffer (50 mM Tris/HCl, pH 8; 0.2 mM DTT; 4 mM MgCl2). A solution of 4 mM NAD^+ (supplier: Roche) was made in incubation buffer (from a 100 mM stock solution in water stored at −20° C.). The PARP-1 enzyme was produced using art known techniques, i.e. cloning and expression of the protein starting from human liver cDNA. Information concerning the used protein sequence of the PARP-1 enzyme including literature references can be found in the Swiss-Prot database under primary accession number P09874. Biotinylated histones and PVT-SPA beads were mixed and pre-incubated for 30 min. at room temperature. PARP-1 enzyme (concentration was lot dependent) was mixed with the nicked DNA and the mixture was pre-incubated for 30 min. at 4° C. Equal parts of this histones/PVT-SPA beads solution and PARP-1 enzyme/DNA solution were mixed and 75 μl of this mixture together with 1 μl of compound in DMSO and 25 μl of [^3H]-NAD^+ was added per well into a 96-well microtiterplate. The final concentrations in the incubation mixture were 2 μg/ml for the biotinylated histones, 2 mg/ml for the PVT-SPA beads, 2 μg/ml for the nicked DNA and between 5-10 μg/ml for the PARP-1 enzyme. After incubation of the mixture for 15 min. at room temperature, the reaction was terminated by adding 100 μl of 4 mM NAD^+ in incubation buffer (final concentration 2 mM) and plates were mixed.
The beads were allowed to sediment for at least 15 min. and plates transferred to a TopCountNXT™ (Packard) for scintillation counting, values were expressed as counts per minute (cpm). For each experiment, controls (containing PARP-1 enzyme and DMSO without compound), a blank incubation (containing DMSO but no PARP-1 enzyme or compound) and samples (containing PARP-1 enzyme and compound dissolved in DMSO) were run in parallel. All compounds tested were dissolved and eventually further diluted in DMSO. […] In each test, the blank value was subtracted from both the control and the sample values. The control sample represented maximal PARP-1 enzyme activity. For each sample, the amount of cpm was expressed as a percentage of the mean cpm value of the controls. When appropriate, IC50-values (concentration of the drug, needed to reduce the PARP-1 enzyme activity to 50% of the control) were computed using linear interpolation between the experimental points just above and below the 50% level. […]

PARP-1 enzyme [2] = target: T1, PARP-1 enzyme; experiment: In vitro filtration assay for PARP-1 inhibitory activity; type: biochemical; details: nicked DNA activated PARP-1, [32P]-NAD, histones; read-out: In vitro filtration assay pIC50 (converted)
Experimental: In Vitro Filtration Assay for PARP-1 Inhibitory Activity
Compounds of the present invention were tested in an in vitro filtration assay assessing PARP-1 activity (triggered in the presence of nicked DNA) by means of its histone poly (ADP-ribosyl)ation activity using [^32P]-NAD as ADP-ribosyl donor. The radioactive ribosylated histones were precipitated by trichloroacetic acid (TCA) in 96-well filterplates and the incorporated [^32P] measured using a scintillation counter A mixture of histones (stock solution: 5 mg/ml in H2O), NAD^+ (stock solution: 100 mM in H2O), and [^32P]-NAD^+ in incubation buffer (50 mM Tris/HCl, pH 8; 0.2 mM DTT; 4 mM MgCl2) was made. A mixture of the PARP-1 enzyme (5-10 μg/ml) and nicked DNA was also made. The nicked DNA was prepared as described in the in vitro SPA for PARP-1 inhibitory activity. Seventy-five μl of the PARP-1 enzyme/DNA mixture together with 1 μl of compound in DMSO and 25 μl of histones-NAD^+/[^32P]-NAD^+ mixture was added per well of a 96-well filterplate (0.45 μm, supplier Millipore). The final concentrations in the incubation mixture were 2 μg/ml for the histones, 0.1 mM for the NAD^+, 200 μM (0.5 μC) for the [^32P]-NAD^+ and 2 μg/ml for the nicked DNA. Plates were incubated for 15 min. at room temperature and the reaction was terminated by the addition of 10 μl ice cold 100% TCA followed by the addition of 10 μl ice-cold BSA solution (1% in H2O). The protein fraction was allowed to precipitate for 10 min. at 4° C. and plates were vacuum filtered. The plates were subsequently washed with, for each well, 1 ml of 10% ice cold TCA, 1 ml of 5% ice cold TCA and 1 ml of 5% TCA at room temperature. Finally 100 μl of scintillation solution (Microscint 40, Packard) was added to each well and the plates were transferred to a TopCountNXT™ (supplier: Packard) for scintillation counting and values were expressed as counts per minute (cpm). For each experiment, controls (containing PARP-1 enzyme and DMSO without compound), a blank incubation (containing DMSO but no PARP-1 enzyme or compound) and samples (containing PARP-1 enzyme and compound dissolved in DMSO) were run in parallel. All compounds tested were dissolved and eventually further diluted in DMSO. In first instance, compounds were tested at a concentration of 10^−5M. […] In each test, the blank value was subtracted from both the control and the sample values. The control sample represented maximal PARP-1 enzyme activity. For each sample, the amount of cpm was expressed as a percentage of the mean cpm value of the controls. When appropriate, IC50-values (concentration of the drug, needed to reduce the PARP-1 enzyme activity to 50% of the control) were computed using linear interpolation between the experimental points just above and below the 50% level. Herein the effects of test compounds are expressed as pIC50 (the negative log value of the IC50-value). As a reference compound, 4-amino-1,8-naphthalimide was included to validate the filtration assay.

T1 sequence (P09874 whole entry): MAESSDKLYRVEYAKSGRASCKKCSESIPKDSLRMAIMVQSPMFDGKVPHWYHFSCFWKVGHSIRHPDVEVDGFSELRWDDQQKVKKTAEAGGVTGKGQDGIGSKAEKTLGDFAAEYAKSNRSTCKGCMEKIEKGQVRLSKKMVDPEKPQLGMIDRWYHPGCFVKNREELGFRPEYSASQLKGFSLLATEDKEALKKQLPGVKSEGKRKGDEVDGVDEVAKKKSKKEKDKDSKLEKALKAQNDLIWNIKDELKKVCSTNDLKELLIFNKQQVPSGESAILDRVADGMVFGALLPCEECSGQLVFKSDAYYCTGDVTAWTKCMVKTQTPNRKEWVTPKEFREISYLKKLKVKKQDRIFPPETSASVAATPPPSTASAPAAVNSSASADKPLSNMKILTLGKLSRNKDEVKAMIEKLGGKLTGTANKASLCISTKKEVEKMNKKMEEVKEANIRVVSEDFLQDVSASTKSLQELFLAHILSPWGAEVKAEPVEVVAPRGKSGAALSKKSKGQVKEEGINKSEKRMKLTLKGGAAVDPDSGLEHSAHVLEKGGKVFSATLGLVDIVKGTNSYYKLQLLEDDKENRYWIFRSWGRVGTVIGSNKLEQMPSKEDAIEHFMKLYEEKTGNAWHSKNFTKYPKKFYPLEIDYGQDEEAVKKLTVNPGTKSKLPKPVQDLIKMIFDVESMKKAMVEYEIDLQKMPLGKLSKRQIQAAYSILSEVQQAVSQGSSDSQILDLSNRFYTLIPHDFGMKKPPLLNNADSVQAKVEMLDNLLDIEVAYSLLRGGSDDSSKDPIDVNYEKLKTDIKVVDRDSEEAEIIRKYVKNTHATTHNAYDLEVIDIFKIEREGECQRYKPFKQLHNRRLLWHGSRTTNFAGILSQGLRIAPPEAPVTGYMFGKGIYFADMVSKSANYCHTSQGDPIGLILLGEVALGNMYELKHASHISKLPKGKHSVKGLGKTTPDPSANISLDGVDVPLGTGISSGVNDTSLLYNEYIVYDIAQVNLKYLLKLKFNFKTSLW

Row | IC50 (PARP-1 enzyme [1]) [nM] | IC50 (PARP-1 enzyme [2]) [nM] | melting point [°C] | SMILES
1 | 188 | 2270 | – | CCc1cc2cc(C(c3cccs3)N3CCC(NCCOC)CC3)ccc2[nH]c1=O (stereo not drawn) [Co. No. 12]
2 | 232 | 568 | 218 | CCc1cc2cc(C(C3CCCCCC3)N3CCC(=O)CC3)ccc2[nH]c1=O (stereo not drawn) [Co. No. 2]
3 | 853 | – | – | CCc1cc2cc(CCN3CCC(NCCOC)CC3)ccc2[nH]c1=O [Co. No. 37]
4 | 873 | 6730 | 122 | CCc1cc2cc(C(OCCN(C)C)C3CCCCC3)ccc2[nH]c1=O (stereo not drawn) [Co. No. 8]
5 | 832 | 4210 | – | CCCCC(c1ccc2[nH]c(=O)c(CC)cc2c1)N1CCC(NCCOC)CC1 (stereo not drawn) [Co. No. 33]
6 | 300 | 1520 | 200 | CCc1cc2cc(C(C3CCCCC3)N3CCC4(CC3)CO4)ccc2[nH]c1=O (stereo not drawn) [Co. No. 4]
7 | 232 | 1260 | – | CCc1cc2cc(C(c3ccsc3)N3CCC(=O)CC3)ccc2[nH]c1=O (stereo not drawn) [Co. No. 23]
8 | 614 | 4380 | 115 | CCc1cc2cc([C@@H](OCCN(C)C)C3CCCCC3)ccc2[nH]c1=O [Co. No. 9]
9 | 184 | 785 | 196 | CCc1cc2cc(C(C3CC=CCC3)N3CCC(O)CC3)ccc2[nH]c1=O (stereo not drawn) [Co. No. 11]
10 | 902 | – | – | CCc1cc2cc(C(C3CCCCC3)N3CCN(C)CC3)ccc2[nH]c1=O (stereo not drawn) [Co. No. 21]
11 | 94.6 | – | 194 | CCc1cc2cc(CN3CCN(Cc4ccccc4)CC3)ccc2[nH]c1=O [Co. No. 7]
12 | 640 | 3400 | – | CCc1cc2cc(C(C3CCCCC3)N3CCC(N4CCOCC4)CC3)ccc2[nH]c1=O (stereo not drawn) [Co. No. 35]
13 | 277 | 1330 | – | CCc1cc2cc(C(C3CC=CCC3)N3CCC(=O)CC3)ccc2[nH]c1=O (stereo not drawn) [Co. No. 24]
14 | 1110 | 6010 | – | CCc1cc2cc(C(NCCN(C)C)C3CCCCC3)ccc2[nH]c1=O (stereo not drawn) [Co. No. 25]
15 | 388 | 1840 | – | CCc1cc2cc(C(O)CN3CCN(C)CC3)ccc2[nH]c1=O (stereo not drawn) [Co. No. 14]
16 | 841 | 5420 | – | CCc1cc2cc([C@@H](NCCN(C)C)C3CCCCC3)ccc2[nH]c1=O [Co. No. 29]
17 | 536 | – | – | CCc1nc2cc(C(C(C)C)N3CCC(c4n[nH]c5cc(F)ccc45)CC3)ccc2[nH]c1=O (stereo not drawn) [Co. No. 26]
18 | 196 | 2830 | – | CCc1cc2cc(C(c3ccsc3)N3CCC(NCCOC)CC3)ccc2[nH]c1=O (stereo not drawn) [Co. No. 32]

Row | IC50 (PARP-1 enzyme [1]) [nM] | IC50 (PARP-1 enzyme [2]) [nM] | melting point [°C] | SMILES
19 | 757 | – | – | CCc1nc2cc(C(C(C)C)N3CCC(=O)CC3)ccc2[nH]c1=O (stereo not drawn) [Co. No. 19]
20 | 383 | 2560 | – | CCc1cc2cc(C(C(CC)CC)N3CCC(=O)CC3)ccc2[nH]c1=O (stereo not drawn) [Co. No. 17]
21 | 568 | 2610 | – | CCc1cc2cc(C(=O)CN3CCOCC3)ccc2[nH]c1=O [Co. No. 36]
22 | 853 | 2430 | – | CCc1cc2cc(C(C3CCCCC3)N3CCC(O)CC3)ccc2[nH]c1=O (stereo not drawn) [Co. No. 34]
23 | 863 | 8260 | – | CCc1cc2cc(C(C3CCCCC3)N3CCC(NCc4cccnc4)CC3)ccc2[nH]c1=O (stereo not drawn) [Co. No. 31]
24 | 198 | 1180 | – | CCc1cc2cc(C(c3cccnc3)N3CCC(=O)CC3)ccc2[nH]c1=O (stereo not drawn) [Co. No. 22]
25 | 600 | 1840 | – | CCc1cc2cc(C(SCCN(C)C)C3CCCCC3)ccc2[nH]c1=O (stereo not drawn) [Co. No. 20]
26 | 508 | 1350 | 194 | CCc1cc2cc(C(C3CCCCC3)N3CCC(O)(c4cncn4C)CC3)ccc2[nH]c1=O (stereo not drawn) [Co. No. 6]
27 | > 1000 | – | – | CCc1cc2cc(C(OCCN(C)C)C3CCCCC3)ccc2[nH]c1=O (stereo not drawn) [Co. No. 10]
28 | 1280 | 9180 | – | CCc1cc2cc([C@@H](C3CCCCC3)N3CCN(CCOC)CC3)ccc2[nH]c1=O [Co. No. 30]
29 | 750 | 2990 | – | CCc1cc2cc(C(NCCOC)C3CCCCC3)ccc2[nH]c1=O (stereo not drawn) [Co. No. 18]
30 | 329 | 349 | 172 | CCc1cc2cc(C(O)CN3CCCCC3)ccc2[nH]c1=O (stereo not drawn) [Co. No. 1]
31 | 288 | 3150 | – | CCc1cc2cc(C(O)C3CCCCC3)ccc2[nH]c1=O (stereo not drawn) [Co. No. 28]
32 | 507 | 5060 | 181 | CCc1cc2cc(C(CCN3CCN(C)CC3)C3CCCCC3)ccc2[nH]c1=O (stereo not drawn) [Co. No. 5]
33 | 288 | 2540 | – | CCc1cc2cc(C(O)CN3CCOCC3)ccc2[nH]c1=O (stereo not drawn) [Co. No. 15]
34 | 230 | 1840 | – | CCc1cc2cc(C(CC(C)C)N3CCC(=O)CC3)ccc2[nH]c1=O (stereo not drawn) [Co. No. 16]
35 | 861 | – | 163 | CCOC(=O)C1CCN(C(C)Cc2ccc3[nH]c(=O)c(CC)nc3c2)CC1 (stereo not drawn) [Co. No. 3]
36 | 180 | 2200 | – | CCc1cc2cc(C(O)C3CCN(Cc4ccccc4)CC3)ccc2[nH]c1=O (stereo not drawn) [Co. No. 27]
